Measured values as given in patent US4588718A, “Carboxy containing ester prodrugs of corticosteroids” (The Upjohn Company, priority 1984, dated 1986).

Key:
[1] = Bioconversion to the parent steroid in vivo (blood levels of test compound and parent steroid); conditions: four female monkeys, dose equivalent to 7.5 mg/kg, injection, blood samples 0 to 8 hours; compared with methylprednisolone hemisuccinate
Method: Since the compounds of Formula I are prodrugs of the parent corticosteroids, their efficacy depends on bioconversion to liberate the free corticoid in vivo. […] Four female monkeys having synchronized menstrual cycles were given on separate days three days apart doses of the compound of Examples 1 and 2 and methylprednisolone hemisuccinate equivalent to 7.5 mg/kg. Prior to dosing the monkeys were fasted overnight and each was anesthetized during dosing. A few mls of 0.01μ ion strength pH 5 sodium acetate buffer was added to the test compound and 1N sodium hydroxide was added slowly with rapid stirring until all the solids went into solution just prior to injection. Blood samples were withdrawn at times 0, 1/12, 1/4, 1, 2, 4 and 8 hours from administration of test compound and levels of test compound and parent steroid were measured.

physchem = assay type: physicochemical; conditions: water, pH 4.8, water
Text: The compounds of this invention tend to be free flowing non-hygroscopic crystalline solids when in the acid form. While the aqueous solubility of these prodrugs is limited at very low pH values, these compounds become very soluble at pH values around 5 or higher. In this pH range the prodrugs self-associate to form micellar solutions.

[2] = assay type: physicochemical; conditions: for t 90% (time for 10% hydrolysis): 25° C., dilute aqueous solution, at the pH of optimum stability (Example 1: pH 4.7; Example 2: pH 4.6)
Method: The most important reaction affecting shelf-life is hydrolysis of the ester or carbonate linkage. From the hydrolysis rate constants determined at 25° C. at various pH values for dilute aqueous solutions of the compounds of this invention, estimates of ^t 90% (time for 10% hydrolysis) may be calculated. Such values, calculated at the pH of optimum stability, for the compounds of Examples 1 and 2 are listed in Table I. The actual shelf-life of formulations of the above compounds would be expected to differ from the above estimates for several reasons. (1) The solubility of the parent corticosteroid formed on hydrolysis may be exceeded prior to 10% degradation of the ester. Micelle formation by the intact prodrugs results in solubilization of free corticosteroid thereby prolonging shelf-life. The degree of solubilization varies with the ester concentration, nature of the pro-moiety, and the structure of the corticosteroid. (2) Other degradation reactions besides hydrolysis may be expected to occur. These should in general be diminished due to micelle formation and can in some cases be controlled by the addition of chelating agents, antioxidants, etc. (3) Micelle formation in concentrated solutions also results in stabilization of the ester linkage toward base catalyzed hydrolysis. For example, the base catalyzed hydrolysis rate constant in a 0.267M solution of the compound of Example 1 is less than 20% the rate constant in a 5×10^-4 M solution.

Compound	conversion to the parent steroid (methylprednisolone) in vivo [1]	solubility (physchem)	pH of optimum stability [2]	base catalyzed hydrolysis rate constant in a 0.267M solution relative to the rate constant in a 5×10^-4 M solution ([2]; 0.267M vs 5×10^-4 M solution)	t 90% (time for 10% hydrolysis) [2]
C[C@H]1C[C@@H]2[C@H]([C@@H](O)C[C@@]3(C)[C@H]2CC[C@]3(O)C(=O)COC(=O)CCCCCS(=O)(=O)CC(=O)O)[C@@]2(C)C=CC(=O)C=C12 [Example 1, methylprednisolone, 21-[6'-(carboxymethylsulfonyl)hexanoate]]	to at least the same extent as was methylprednisolone hemisuccinate	> 160 mg/mL	4.7	less than 20%	2.0 years
C[C@H]1C[C@@H]2[C@H]([C@@H](O)C[C@@]3(C)[C@H]2CC[C@]3(O)C(=O)COC(=O)CCCCC[S+]([O-])CC(=O)O)[C@@]2(C)C=CC(=O)C=C12 (some centres unmarked) [Example 2, methylprednisolone-21-[6'-(carboxymethylsulfinyl)hexanoate]]	to at least the same extent as was methylprednisolone hemisuccinate	–	4.6	–	0.93 years
